Patent EP4656642A1, “ESTROGEN RECEPTOR PROTEOLYSIS TARGETING CHIMERA COMPOUND AND USE THEREOF” (GAN & LEE PHARM CO., LTD, priority 2023, dated 2024)
Residue numbers refer to the chain shown, from its start. Read-outs that look alike come from different tables or passages of the source.

Columns and labels:
Type in all cases: cell-based
LNCAP FGC cells = assay: Inhibition of LNCAP cell proliferation (WST-8, 96 hours)
Experimental: Test Example 8 Inhibitory activity of the compounds disclosed in the present disclosure on LNCAP cell proliferation
LNCAP FGC cells (ATCC, CLR-1740) were cultured in RPMI 1640 (ATCC, 30-2001) complete medium containing 10% fetal bovine serum (Hyclone, SH30406.05). On the first day of the experiment, LNCaP FGC cells were inoculated in 96-well plates at a density of 5,000 cells/well using RPMI 1640 medium containing 10% fetal bovine serum, with 100µL of cell suspension per well, and placed in a cell culture incubator with 5% CO2 at 37°C overnight. […] The compound concentrations were prepared in complete […] medium and serially diluted 5-fold starting from 10 µM, resulting in a total of nine concentration points. Wells receiving 100 µL of RPMI 1640 medium containing 10% FBS only were used as controls. The plates were incubated at 37°C in a 5% CO2 incubator for 96 hours.

VCaP cells = assay: Inhibition of proliferation of VCaP cells (WST-8, 168 hours)
Experimental: Test Example 7 Inhibitory activity of the compounds disclosed in the present disclosure on the proliferation of VCaP cells
VCaP cells (ATCC, CRL-2876) were cultured in DMEM (Gibco, 11995-065) complete medium containing 10% fetal bovine serum (Hyclone, SH30406.05). On the first day of the experiment, VCaP cells were inoculated in 96-well plates at a density of 15,000 cells/well using DMEM medium containing 10% fetal bovine serum, with 100µL of cell suspension per well, and placed in a cell culture incubator with 5% CO2 at 37°C overnight. […] The compound concentrations were prepared in complete DMEM medium and serially diluted 5-fold starting from 10 µM, resulting in a total of nine concentration points. Wells receiving 100 µL of DMEM medium containing 10% FBS only were used as blank controls. The plates were incubated at 37°C in a 5% CO2 incubator for 168 hours.

AR protein [1] = molecular target: T1, AR protein (Homo sapiens, UniProt P10275, T878A); assay: Degradation of AR protein in LNCAP cells (Western blot, 8 h); settings: LNCaP FGC cells
T1 construct: host or cells: LNCaP FGC
T1 sequence (P10275 1-920 T878A): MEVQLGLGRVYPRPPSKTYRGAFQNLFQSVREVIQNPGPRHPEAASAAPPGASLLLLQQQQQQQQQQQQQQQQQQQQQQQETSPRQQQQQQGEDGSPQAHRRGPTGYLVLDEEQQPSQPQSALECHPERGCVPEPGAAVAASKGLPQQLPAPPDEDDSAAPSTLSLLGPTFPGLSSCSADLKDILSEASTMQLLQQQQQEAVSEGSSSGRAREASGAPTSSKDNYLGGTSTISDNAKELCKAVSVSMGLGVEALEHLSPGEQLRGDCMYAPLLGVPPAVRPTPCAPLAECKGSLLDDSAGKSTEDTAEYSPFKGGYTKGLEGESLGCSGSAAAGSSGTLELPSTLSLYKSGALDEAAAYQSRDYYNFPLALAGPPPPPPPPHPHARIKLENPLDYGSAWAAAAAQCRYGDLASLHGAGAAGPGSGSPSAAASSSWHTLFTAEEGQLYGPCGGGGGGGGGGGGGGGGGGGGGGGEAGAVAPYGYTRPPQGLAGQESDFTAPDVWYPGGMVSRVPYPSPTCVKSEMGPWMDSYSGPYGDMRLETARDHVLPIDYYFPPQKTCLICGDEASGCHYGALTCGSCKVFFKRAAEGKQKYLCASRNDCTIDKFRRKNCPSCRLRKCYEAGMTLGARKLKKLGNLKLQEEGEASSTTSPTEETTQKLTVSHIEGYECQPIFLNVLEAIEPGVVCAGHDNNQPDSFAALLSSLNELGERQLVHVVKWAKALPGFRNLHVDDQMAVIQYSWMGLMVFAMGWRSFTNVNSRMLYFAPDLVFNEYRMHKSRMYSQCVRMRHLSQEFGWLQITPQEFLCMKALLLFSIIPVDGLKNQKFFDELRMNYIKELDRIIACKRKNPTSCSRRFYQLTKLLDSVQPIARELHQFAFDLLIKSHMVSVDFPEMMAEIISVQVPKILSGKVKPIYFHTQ
Experimental: After 8 h, the culture medium was discarded, and the cells were washed with PBS. After the cells were washed with PBS, RIPA lysis buffer containing 1% Protease Inhibitor Cocktail was added, and the total protein extract was obtained after lysis and centrifugation, and the protein concentration in the extract was detected by BCA method. Protein electrophoresis was carried out by SDS-PAGE, after which the proteins were transferred to PVDF (Millipore Sigma Catalog No. PSRP010R5) membrane by 100V constant voltage electrotransfer for 60 min, and the PVDF membrane was placed in 1×TBST solution with 5% milk and blocked at room temperature for 1h. […] The primary antibody solution was discarded, and the PVDF membrane was washed three times with 1× TBST for 5 min each. […] The secondary antibody solution was discarded, and the PVDF membrane was washed three times with 1× TBST for 5 min each. Western membrane imaging was performed using a dual-color infrared laser imaging system (Licor catalog number Odyssey CLX). Bands were analyzed in grayscale using the software Image Studio. For each sample, GAPDH protein bands were detected as internal reference. The degradation rates of the AR protein for the compounds and positive control sample were calculated based on the grayscale of the protein bands.

AR protein [2] = molecular target: T2, AR protein (Homo sapiens, UniProt P10275); settings: 8 h
T2 construct: host or cells: VCaP
T2 sequence (P10275 1-920): T1 sequence (P10275 1-920 T878A) with A878T
Experimental: Test Example 9 Degradation activity of the compounds disclosed in the present disclosure against AR protein in VCAP cells (cell source: ATCC)
AR-positive human prostate cancer cells, VCaP, were inoculated in six-well microplates (Thermo Catalog No. 140675) in DMEM (GiBco Catalog No. 11995-065) containing 10% FBS (Hyclone Catalog No. SH30406.05) at a density of 3 × 10^5 cells/well. […] After 8 h, the culture medium was discarded, and cells were washed with PBS, then RIPA lysis buffer containing 1% Protease Inhibitor Cocktail was added, and the total protein extract was obtained after lysis and centrifugation, and the protein concentration in the extract was detected by BCA method. Protein electrophoresis was carried out by SDS-PAGE, after which the protein was transferred to PVDF (Millipore Sigma catalog number PSRP010R5) membrane by 100V constant-voltage electrotransfer for 60 min, and the PVDF membrane was placed in 1×TBST solution with 5% milk and blocked at room temperature for 1 h. The primary antibody solution (Anti-Androgen receptor, Cell Signaling Technology Catalog No. 5153S; 1: 2000 dilution) was prepared and incubated overnight at 4°C. The primary antibody solution was discarded, and the PVDF membrane was washed three times with 1× TBST for 5 min each. The secondary antibody solution (Thermo catalog number SA5-35571; 1:7500 dilution) was prepared, and the secondary antibody dilution was incubated at room temperature for 1h. The secondary antibody solution was discarded, and the PVDF membrane was washed three times with 1×TBST for 5 min each. Western membrane imaging was performed using a dual-color infrared laser imaging system (Licor catalog number Odyssey CLX). Bands were analyzed in grayscale using the software Image Studio. For each sample, GAPDH protein bands were detected as internal reference. The degradation rates of the AR protein for the compounds and positive control sample were calculated based on the grayscale of the protein bands.

[3] = LNCAP FGC cells, 96 hours, WST-8

| SMILES | IC50 (LNCAP FGC cells; [3]) | IC50 (VCaP cells; VCaP cells, 168 hours, WST-8) | Degradation rates of the AR protein in LNCAP cells, 10 nM (%) (AR protein [1]) | Degradation rates of the AR protein in LNCAP cells, 100 nM (%) (AR protein [1]) | IC50 (LNCAP FGC cells) | IC50 (VCaP cells) | Degradation rates of the AR protein in VCAP cells, 0.5 nM (AR protein [2]) | Degradation rates of the AR protein in VCAP cells, 5 nM (AR protein [2]) |
| --- | --- | --- | --- | --- | --- | --- | --- | --- |
| COc1cc(O[C@H]2CC[C@H](NC(=O)c3ccc(N4CCC(CN5CCC6(CC5)COc5c6ccc6c5C(=O)N(C5CCC(=O)NC5=O)C6)(OC)CC4)nn3)CC2)ccc1C#N (relative stereo) [2-264] | 33.6 µM | 0.003 µM | 52% | 71% |  |  |  |  |
| C[C@H]1CC2(CCN(c3ccc(N4CCC(C)(CN5CCC6(CCc7cc8c(cc7O6)C(=O)N(C6CCC(=O)NC6=O)C8)CC5)CC4)cc3)CC2)CN1c1ccc(C#N)c(Cl)c1 (stereo partly drawn) [2-101] |  |  |  |  | 5.08 µM | 0.01 µM |  |  |
| COc1cc(O[C@H]2CC[C@H](NC(=O)c3ccc(N4CCC(CN5CCC6(CC5)COc5c6ccc6c5C(=O)N(C5CCC(=O)NC5=O)C6)CC4)nn3)CC2)ccc1C#N (relative stereo) [2-314] | 42.4 µM |  | 69% | 76% |  |  | 86% | 91% |
| COC1(CN2CCC3(CCc4cc5c(cc4O3)C(=O)N(C3CCC(=O)NC3=O)C5)CC2)CCN(c2ccc(N3CCC4(CC3)C[C@H](C)N(c3ccc(C#N)c(Cl)c3)C4)cc2)CC1 (stereo partly drawn) [2-99] |  |  |  |  | 2.71 µM | 0.007 µM |  |  |
| N#Cc1ccc(O[C@H]2CC[C@H](NC(=O)c3ccc(N4CCC(CN5CCC6(CC5)COc5c6ccc6c5C(=O)N(C5CCC(=O)NC5=O)C6)CC4)nn3)CC2)cc1Cl (relative stereo) [2-313] | 34.3 µM |  | 75% | 79% |  |  | 78% | 89% |
